# Source: patent publication US7700786B2, “Pyrazole derivative, intermediate therefor, processes for producing these, and herbicide containing these as active ingredient” (Sagami Chemical Research Center, priority 2001, dated 2010)
# Columns and labels:
# Monochoria vaginalis = experiment: Herbicidal efficacy test by pre-emergence treatment under submergence condition; type: in vivo; settings: 15th day after treatment, ratings of 1 to 5; note: key: 1 shows no influence; 5 shows complete die
# Source text: (§1) A 1/10,000-are pot was filled with paddy field soil, and, after plowing, seeds of Echinochloa oryzicola, Cyperus difformis, Monochoria vaginalis, Scirpus juncoides, Eleocharis acicularis and other annual broadleaf weeds such as Lindernia procumbens, Rotala indica and Elatine triandra were sown. Rice (oryza sativa) seedlings (cultiver “Koshihikari”) at a 2.5-leaf stage were transplanted and kept under a submergence condition. After one day, the wettable powder or emulsifiable concentrate of the compound of the present invention, prepared according to Preparation Example, was diluted and dropped on a water surface at a predetermined dose.
# Scirpus juncoides = experiment: as above; type: in vivo; settings: 15th day after treatment, ratings of 1 to 5
# Source text: as §1
# [1] = tested on: annual broadleaf weeds such as Lindernia procumbens, Rotala indica and Elatine triandra; experiment: as above; type: in vivo; settings: 15th day after treatment, ratings of 1 to 5
# Source text: as §1
# Cyperus difformis = experiment: as above; type: in vivo; settings: 15th day after treatment, ratings of 1 to 5; note: key: 1 shows no influence; 5 shows complete die
# Source text: as §1
# Eleocharis acicularis = experiment: as above; type: in vivo; settings: 15th day after treatment, ratings of 1 to 5; note: key: 1 shows no influence; 5 shows complete die
# Source text: as §1
# Echinochloa oryzicola = experiment: as above; type: in vivo; settings: 15th day after treatment, ratings of 1 to 5
# Source text: as §1
compound,measurement,setting,value
"CCCNC(=O)n1nc(Oc2ncc(C(F)(F)F)cc2Cl)cc1C [Compound 4-23, N-propyl-3-(3-chloro-5-trifluoromethylpyridin-2-yloxy)-5-methylpyrazole-1-carboxamide]",Herbicidal efficacy Mv,Monochoria vaginalis; dose 0.5 kg/ha,5
same,Herbicidal efficacy Mv,Monochoria vaginalis; dose 1 kg/ha,5
same,Herbicidal efficacy Sj,Scirpus juncoides; dose 0.5 kg/ha,4.9
same,Herbicidal efficacy Sj,Scirpus juncoides; dose 1 kg/ha,5
same,Herbicidal efficacy Blw,[1]; dose 0.5 kg/ha,4.8
same,Herbicidal efficacy Blw,[1]; dose 1 kg/ha,5
same,Herbicidal efficacy Cd,Cyperus difformis; dose 0.5 kg/ha,5
same,Herbicidal efficacy Cd,Cyperus difformis; dose 1 kg/ha,5
same,Herbicidal efficacy Ea,Eleocharis acicularis; dose 0.5 kg/ha,5
same,Herbicidal efficacy Ea,Eleocharis acicularis; dose 1 kg/ha,5
same,Herbicidal efficacy Eo,Echinochloa oryzicola; dose 0.5 kg/ha,5
same,Herbicidal efficacy Eo,Echinochloa oryzicola; dose 1 kg/ha,5
"CNC(=O)n1nc(Oc2ncc(C(F)(F)F)cc2Cl)cc1C [Compound 4-6, N-methyl-3-(3-chloro-5-trifluoromethylpyridin-2-yloxy)-5-methylpyrazole-1-carboxamide]",Herbicidal efficacy Mv,Monochoria vaginalis; dose 0.5 kg/ha,5
same,Herbicidal efficacy Mv,Monochoria vaginalis; dose 1 kg/ha,5
same,Herbicidal efficacy Sj,Scirpus juncoides; dose 0.5 kg/ha,4.6
same,Herbicidal efficacy Sj,Scirpus juncoides; dose 1 kg/ha,5
same,Herbicidal efficacy Blw,[1]; dose 0.5 kg/ha,5
same,Herbicidal efficacy Blw,[1]; dose 1 kg/ha,5
same,Herbicidal efficacy Cd,Cyperus difformis; dose 0.5 kg/ha,5
same,Herbicidal efficacy Cd,Cyperus difformis; dose 1 kg/ha,5
same,Herbicidal efficacy Ea,Eleocharis acicularis; dose 0.5 kg/ha,5
same,Herbicidal efficacy Ea,Eleocharis acicularis; dose 1 kg/ha,5
same,Herbicidal efficacy Eo,Echinochloa oryzicola; dose 0.5 kg/ha,4.8
same,Herbicidal efficacy Eo,Echinochloa oryzicola; dose 1 kg/ha,5
"CCNC(=S)n1nc(Oc2ncc(C(F)(F)F)cc2Cl)cc1C [Compound 4-17, N-ethyl-3-(3-chloro-5-trifluoromethylpyridin-2-yloxy)-5-methylpyrazole-1-carbothioamide]",Herbicidal efficacy Mv,Monochoria vaginalis; dose 0.5 kg/ha,5
same,Herbicidal efficacy Mv,Monochoria vaginalis; dose 1 kg/ha,5
same,Herbicidal efficacy Sj,Scirpus juncoides; dose 0.5 kg/ha,4.5
same,Herbicidal efficacy Sj,Scirpus juncoides; dose 1 kg/ha,4.8
same,Herbicidal efficacy Blw,[1]; dose 0.5 kg/ha,4.8
same,Herbicidal efficacy Blw,[1]; dose 1 kg/ha,5
same,Herbicidal efficacy Cd,Cyperus difformis; dose 0.5 kg/ha,5
same,Herbicidal efficacy Cd,Cyperus difformis; dose 1 kg/ha,5
same,Herbicidal efficacy Ea,Eleocharis acicularis; dose 0.5 kg/ha,5
same,Herbicidal efficacy Ea,Eleocharis acicularis; dose 1 kg/ha,5
same,Herbicidal efficacy Eo,Echinochloa oryzicola; dose 0.5 kg/ha,5
same,Herbicidal efficacy Eo,Echinochloa oryzicola; dose 1 kg/ha,5
Cc1cc(Oc2c(Cl)cc(C(F)(F)F)cc2Cl)nn1C(=O)NCCCl [Compound 3-143],Herbicidal efficacy Mv,Monochoria vaginalis; dose 0.5 kg/ha,5
same,Herbicidal efficacy Mv,Monochoria vaginalis; dose 1 kg/ha,5
same,Herbicidal efficacy Sj,Scirpus juncoides; dose 0.5 kg/ha,4
same,Herbicidal efficacy Sj,Scirpus juncoides; dose 1 kg/ha,5
same,Herbicidal efficacy Blw,[1]; dose 0.5 kg/ha,5
same,Herbicidal efficacy Blw,[1]; dose 1 kg/ha,5
same,Herbicidal efficacy Cd,Cyperus difformis; dose 0.5 kg/ha,5
same,Herbicidal efficacy Cd,Cyperus difformis; dose 1 kg/ha,5
same,Herbicidal efficacy Ea,Eleocharis acicularis; dose 0.5 kg/ha,5
same,Herbicidal efficacy Ea,Eleocharis acicularis; dose 1 kg/ha,5
same,Herbicidal efficacy Eo,Echinochloa oryzicola; dose 0.5 kg/ha,5
same,Herbicidal efficacy Eo,Echinochloa oryzicola; dose 1 kg/ha,5
"CCNC(=O)n1nc(Oc2ncc(C(F)(F)F)cc2Cl)cc1C [Compound 4-16, N-ethyl-3-(3-chloro-5-trifluoromethylpyridin-2-yloxy)-5-methylpyrazole-1-carboxamide]",Herbicidal efficacy Mv,Monochoria vaginalis; dose 0.5 kg/ha,5
same,Herbicidal efficacy Mv,Monochoria vaginalis; dose 1 kg/ha,5
same,Herbicidal efficacy Sj,Scirpus juncoides; dose 0.5 kg/ha,4.8
same,Herbicidal efficacy Sj,Scirpus juncoides; dose 1 kg/ha,5
same,Herbicidal efficacy Blw,[1]; dose 0.5 kg/ha,5
same,Herbicidal efficacy Blw,[1]; dose 1 kg/ha,5
same,Herbicidal efficacy Cd,Cyperus difformis; dose 0.5 kg/ha,5
same,Herbicidal efficacy Cd,Cyperus difformis; dose 1 kg/ha,5
same,Herbicidal efficacy Ea,Eleocharis acicularis; dose 0.5 kg/ha,5
same,Herbicidal efficacy Ea,Eleocharis acicularis; dose 1 kg/ha,5
same,Herbicidal efficacy Eo,Echinochloa oryzicola; dose 0.5 kg/ha,5
same,Herbicidal efficacy Eo,Echinochloa oryzicola; dose 1 kg/ha,5
"Cc1cc(Oc2ccc([N+](=O)[O-])c(C)c2)n[nH]1 [Compound 1-4, 5-methyl-3-(4-nitro-3-methylphenyloxy)pyrazole]",melting point,,114 to 117 °C
CCc1c(Oc2ccc(C(F)(F)F)cc2[N+](=O)[O-])nn(C(=O)NC)c1C,melting point,,81 to 82 °C
"CNC(=O)n1nc(Oc2ccc([N+](=O)[O-])cc2C(F)(F)F)c(Cl)c1C [Example 245, N-methyl-4-chloro-5-methyl-3-(4-nitro-2-trifluoromethylphenyloxy)pyrazole-1-carboxamide]",melting point,,157 to 158 °C
"Cc1cc(Oc2c(Cl)cc(C(F)(F)F)cc2Cl)nn1C(=O)NCC=O [Example 229, N-formylmethyl-3-(2,6-dichloro-4-trifluoromethylphenyloxy)-5-methylpyrazole-1-carboxamide]",melting point,,111 to 113 °C
"CC(C)N(C(=O)n1nc(Oc2ccc(C(F)(F)F)cc2[N+](=O)[O-])cc1C(F)(F)F)C(C)C [Example 241, N,N-Diisopropyl-3-(2-nitro-4-trifluoromethylphenyloxy)-5-trifluoromethylpyrazole-1-carboxamide]",melting point,,118 to 120 °C
Cc1cc(Oc2ccccc2C(F)(F)F)nn1C(=O)Nc1ccccc1,melting point,,87 to 89 °C
CNC(=S)n1nc(Oc2ncc(C(F)(F)F)cc2Cl)cc1C,melting point,,63 to 65 °C
"CCNC(=O)n1nc(Oc2ccc(F)cc2[N+](=O)[O-])cc1C [Example 85, N-ethyl-3-(4-fluoro-2-nitrophenyloxy)-5-methylpyrazole-1-carboxamide]",melting point,,81 to 84 °C
"Cc1cc(Oc2ccc(C(F)(F)F)cc2[N+](=O)[O-])nn1C(=O)NC(C)(C)C [Example 86, N-tert-butyl-5-methyl-3-(2-nitro-4-trifluoromethylphenyloxy)-pyrazole-1-carboxamide]",melting point,,104 to 106 °C
"Cc1cc(Oc2ncc(C(F)(F)F)cc2Cl)nn1C(=O)N(C)C [Compound 4-10, N,N-Dimethyl-3-(3-chloro-5-trifluoromethylpyridin-2-yloxy)-5-methylpyrazole-1-carboxamide]",melting point,,102 to 104 °C
"CCc1c(Cl)c(Oc2ncc(C(F)(F)F)cc2Cl)nn1C(=O)NC [Compound 4-89, N-methyl-4-chloro-3-(3-chloro-5-trifluoromethylpyridin-2-yloxy)-5-ethylpyrazole-1-carboxamide]",melting point,,88 to 89 °C
"Cc1cc(Oc2c(F)cc(C(F)(F)F)cc2Cl)n[nH]1 [Compound 1-19, 3-(2-chloro-6-fluoro-4-trifluoromethylphenyloxy)-5-methylpyrazole]",melting point,,171 to 174 °C
"CCNC(=O)n1nc(Oc2c(Cl)cc(C(F)(F)F)cc2Cl)cc1CC [Example 163, N-ethyl-3-(2,6-dichloro-4-trifluoromethylphenyloxy)-5-ethylpyrazole-1-carboxamide]",melting point,,86 to 89 °C
"Cc1cc(Oc2ccc(C(F)(F)F)cc2[N+](=O)[O-])n[nH]1 [Compound 1-44, 5-methyl-3-(2-nitro-4-trifluoromethylphenyloxy)pyrazole]",melting point,,89 to 91 °C
"CCNC(=O)n1nc(Oc2ncc(C(F)(F)F)cc2Cl)c(CC)c1C [Compound 4-85, N-ethyl-3-(3-chloro-5-trifluoromethylpyridin-2-yloxy)-4-ethyl-5-methylpyrazole-1-carboxamide]",melting point,,101 to 102 °C
CCc1cc(Oc2ccc(C(F)(F)F)cc2[N+](=O)[O-])nn1C(=O)NC,melting point,,89 to 91 °C
"Cc1cc(Oc2ccc([N+](=O)[O-])c(Cl)c2)n[nH]1 [Compound 1-23, 3-(3-chloro-4-nitrophenyloxy)-5-methylpyrazole]",melting point,,91 to 93 °C
"Cc1cc(Oc2ccc([N+](=O)[O-])c(F)c2)n[nH]1 [Compound 1-26, 3-(3-fluoro-4-nitrophenyloxy)-5-methylpyrazole]",melting point,,80 to 83 °C
CCNC(=S)n1nc(Oc2c(F)cc(C(F)(F)F)cc2Cl)cc1C,melting point,,114 to 115 °C
"Cc1cc(Oc2c(Cl)cc(C(F)(F)F)cc2Cl)nn1C(N)=O [Example 223, 3-(2,6-dichloro-4-trifluoromethylphenyloxy)-5-methylpyrazole-1-carboxamide]",melting point,,152 to 154 °C
